We go through four compounds from paper PMC6949113, “Preclinical evaluation of AT-527, a novel guanosine nucleotide prodrug with potent, pan-genotypic activity against hepatitis C virus” (PLoS ONE, 2020).

Each structure is given as a SMILES string. Marks after values point to notes of the source that are not given here.

A short description of data set [1]: Rat pharmacokinetic study, plasma. It is filed as in vivo, Sprague-Dawley rat. The note with it: for plasma concentration, individual rats: AT-527 500 mg/kg oral, male 1-3, female 7-9, BQL: <0.0017 AT-511, <0.0022 M1, <0.0032 AT-273, M4.
Data set [2] can be described thus: Monkey PK study, plasma.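 As to plasma concentration: concentrations in nmol/mL.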 It is filed as in vivo, cynomolgus monkey. The note with it: for plasma concentration: male cynomolgus monkeys; for AUC(0-t) / Cmax / MRT last / Tmax: male, cynomolgus, cynomolgus monkey, in vivo, po. From the text: (§1) Monkey PK study. Male non-naïve cynomolgus monkeys were obtained from Hainan Jingang Laboratory Animal Co., Ltd. (Hainan, China), group housed during the 5-day acclimation period or individually housed during the study in stainless steel mesh cages, provided ad libitum access to RO water, fed twice daily (~120 g Certified Monkey Diet daily; Beijing Vital Keao Feed Co., Ltd., Beijing, China) and given daily treats of fresh fruit. Additional environmental enrichment included classical music and cartoons. Three groups of 5 monkeys each were administered 30, 100 or 300 mg/kg AT-527 as a powder filled in empty porcine hard gelatin capsules (size 0). The monkeys were fasted overnight prior to dosing and fed 4 h after dosing. Three dosages were selected to provide assessments of dose proportionality, the top two representing potential doses for a repeated oral dose toxicity study in monkeys, and the lowest predicted to be more therapeutically relevant. A pill gun was used to place the capsule beyond the root of the animals’ tongues and their mouths were held loosely closed for approximately 30 sec to allow them to move the jaw and swallow the capsule. Immediately following capsule administration, 20 mL of water was given by mouth and then the mouth was opened to ensure the capsule was swallowed. Blood samples (~0.6 mL) were collected up to 72 h from three animals per dose group, and up to 4 h from the remaining two animals in each group, at the same time points described for rats. […] Blood samples were collected with a syringe from a peripheral blood vessel from restrained, non-sedated animals, immediately transferred to pre-chilled tubes containing ~1 mg K2EDTA•2H20 and 20 μL of 5 mM dichlorvos solution, mixed and placed on ice until plasma was prepared by centrifugation as described for rats. Immediately after centrifugation, plasma samples were extracted with 4 volumes ISS2, and the supernatants were clarified by centrifugation (12,000 rpm, 10 min, 4°C) and stored at ≤ -60°C until analyzed by LC-MS/MS as described below. After the 4-hr blood collection, two monkeys per dose group were anesthetized with intravenous injection of pentobarbital sodium (60 mg/kg) and then euthanized as described for rats. […] All analytes were quantitated by LC-MS/MS as described below.
LC-MS/MS analysis of rat and monkey plasma and tissue homogenate supernatants. For the analysis of AT-511 in rat plasma, aliquots were extracted with 10 volumes ISS2. The supernatants were clarified by centrifugation (4000 rpm for 10 min at 4°C) and 3 μL samples were injected onto an Acuity BEH C18 1.7 μm, 2.1 × 50 mm column and a Sciex API 4000 mass spectrometer (ESI positive ion, MRM mode). Mobile phases A (0.025% formic acid (FA) and 1 mM ammonium acetate (AA) in 5% ACN in water) and B (0.025% FA and 1 mM AA in 95% ACN in water) were used to elute samples (3 μL) at 0.6 mL/min with 10% B for 0.3 min followed by linear gradients to 60% B over 0.6 min and to 90% B over 0.2 min, and ending with 90% B for 0.4 min.
PK data analysis. […] The linear/log trapezoidal rule was applied in obtaining the PK parameters.

The nature of data set [3]: Monkey PK study, liver and heart tissue levels. It is filed as in vivo, cynomolgus monkey. Particulars: monkey; for Liver/Heart Ratio: 4 h; for Mean Concentration at 4 hr Postdose, Heart: footnoted values extrapolated below LLOQ.
From the text: as §1
For the analysis of AT-9010 in rat tissue homogenate supernatant, aliquots were diluted 1:2 with water and injected onto an Agilent Zorbax Extend C18 5 μm, 2.1 × 50 mm column and a Sciex API 4000 mass spectrometer (ESI positive ion, MRM mode). Mobile phases A (0.001% ammonia and 0.18 mM DBAA in water (1:1, v/v) and B (10 mM dimethylhexylamine (DMHA) and 3 mM AA in 50% ACN in water) were used to elute samples (60 μL) at 0.7 mL/min with 2% B for 0.8 min followed by a linear gradient to 30% B over 0.4 min, isocratic elution at 30% B for 0.4 min, a linear gradient to 95% B over 0.4 min, and ending with 95% B for 0.4 min. The analysis of AT-9010 in monkey tissue homogenate supernatant was the same except the sample injection volume was 20 μL. Attempts to measure tissue levels of other potentially formed TPs, including 2,6-diaminopurine-2’-F-2’-C-methylribosyl-5’-triphosphate and 2-amino-6-methylaminopurine-2’-F-2’-C-methylribosyl-5’-triphosphate (M2-TP), also used this method.
For the analysis of M2 and M3 in monkey tissue homogenate supernatant, aliquots were diluted 1:3 with water and injected onto an Acuity HSS T3 1.8 μm, 2.1 × 50 mm column and a Sciex API 6500 mass spectrometer (ESI positive ion, MRM mode). Mobile phases A (0.3% FA and 10 mM AA in water and B (0.3% FA and 10 mM AA in 95% ACN in water) were used to elute samples (1 μL) at 0.6 mL/min with 0% B for 0.4 min followed by linear gradients to 30% B over 0.5 min and to 95% B over 0.2 min, ending with isocratic elution at 95% B for 0.4 min.

Where [4] appears, read: both sexes, Sprague-Dawley, rat, in vivo, po, 500 mg/kg.

For the compound `CNc1nc(N)nc2c1ncn2[C@@H]1O[C@H](CO[P@@](=O)(N[C@@H](C)C(=O)OC(C)C)Oc2ccccc2)[C@@H](O)[C@@]1(C)F` [AT-527], the “unusual or adverse clinical signs” value in data set [1] (rats, single oral 500 mg/kg) is on record as “no such signs noted”; in data set [2] (monkeys, single oral 30, 100 or 300 mg/kg) it was “no such signs noted”.
On to `CNc1nc(N)nc2c1ncn2[C@@H]1O[C@H](CO[P@](=O)(O)N[C@@H](C)C(=O)O)[C@@H](O)[C@@]1(C)F` [M1], for which the “plasma concentration, individual rats” value in data set [1] (48.0 h) and in data set [1] (72.0 h) was “BQL” each time. Moreover, the AUC(0-t) in data set [1] (setting [4]) was determined as 77.9 ± 20.3 µM·h; in data set [2] (30 mg/kg), 5.44 ± 2.76 µM·h; in data set [2] (100 mg/kg) it was 25.5 ± 10.1 µM·h; in data set [2] (300 mg/kg), 35.6 ± 26.4 µM·h. Moreover, the highest concentration (Cmax) stood at 40.8 ± 9.7 µM in data set [1] (setting [4]), 0.94 ± 0.61 µM in data set [2] (30 mg/kg), 4.24 ± 2.84 µM in data set [2] (100 mg/kg) and 4.44 ± 4.74 µM in data set [2] (300 mg/kg). For the same compound, the MRT last is 2.54 ± 0.41 h in data set [1] (setting [4]), 7.06 ± 1.07 h in data set [2] (30 mg/kg), 7.22 ± 0.48 h in data set [2] (100 mg/kg) and 11.4 ± 3.6 h in data set [2] (300 mg/kg). Further, the Tmax in data set [1] (setting [4]) was determined as 34.8 ± 8.4 min; in data set [2] (30 mg/kg) it was 4.67 ± 2.31 h; in data set [2] (300 mg/kg), 4.67 ± 1.16 h. Moreover, the plasma concentration result in data set [2] (single oral AT-527 30 mg/kg, 0.500 h, monkey 1) was “BQL”; in data set [2] (single oral AT-527 30 mg/kg, 48.0 h, monkey 1), “BQL”; in data set [2] (single oral AT-527 30 mg/kg, 48.0 h, monkey 2), “BQL”; in data set [2] (single oral AT-527 30 mg/kg, 72.0 h, monkey 1), “BQL”; in data set [2] (single oral AT-527 30 mg/kg, 72.0 h, monkey 2) it was “BQL”; in data set [2] (single oral AT-527 30 mg/kg, 72.0 h, monkey 3), “BQL”. The plasma concentration result in data set [2] (single oral AT-527 100 mg/kg, 48.0 h, monkey 1) is “BQL”; in data set [2] (single oral AT-527 100 mg/kg, 48.0 h, monkey 2), “BQL”; in data set [2] (single oral AT-527 100 mg/kg, 72.0 h, monkey 1), “BQL”; in data set [2] (single oral AT-527 100 mg/kg, 72.0 h, monkey 2), “BQL”; in data set [2] (single oral AT-527 100 mg/kg, 72.0 h, monkey 3), “BQL”; in data set [2] (single oral AT-527 300 mg/kg, 0.500 h, monkey 1), “BQL”. Further, the plasma concentration result in data set [2] (single oral AT-527 300 mg/kg, 48.0 h, monkey 2) is reported as “BQL”; in data set [2] (single oral AT-527 300 mg/kg, 48.0 h, monkey 3), “BQL”; in data set [2] (single oral AT-527 300 mg/kg, 72.0 h, monkey 1), “BQL”; in data set [2] (single oral AT-527 300 mg/kg, 72.0 h, monkey 2), “BQL”; in data set [2] (single oral AT-527 300 mg/kg, 72.0 h, monkey 3), “BQL”. In addition, the “Liver/Heart Ratio” value in data set [3] (AT-527 30 mg/kg oral) came to 3.7; in data set [3] (AT-527 100 mg/kg oral) it was 3.6; in data set [3] (AT-527 300 mg/kg oral), 5.6.
Turning to `CNc1nc(N)nc2c1ncn2[C@@H]1O[C@H](COP(=O)(O)O)[C@@H](O)[C@@]1(C)F` [M2], in data set [3] (AT-527 30 mg/kg oral), the “Mean Concentration at 4 hr Postdose, Liver” value (from here on “Mean Concentration … Liver”) was 103 pmol/g; the “Liver/Heart Ratio” value is 19^a; the “Mean Concentration at 4 hr Postdose, Heart” value (“Mean Concentration … Heart” below) is recorded as 5.4^a pmol/g. For the same compound, in data set [3] (AT-527 100 mg/kg oral), the “Mean Concentration … Liver” value is reported as 479 pmol/g; the “Liver/Heart Ratio” value was 48^a; the “Mean Concentration … Heart” value is given as 9.9^a pmol/g. In data set [3] (AT-527 300 mg/kg oral), the “Mean Concentration … Liver” value is reported as 87.9 pmol/g; the “Liver/Heart Ratio” value is on record as 13^a; the “Mean Concentration … Heart” value was 6.6^a pmol/g.
`C[C@@]1(F)[C@H](O)[C@@H](COP(=O)(O)O)O[C@H]1n1cnc2c(=O)[nH]c(N)nc21` [M3]: in data set [3] (AT-527 30 mg/kg oral), the “Mean Concentration … Liver” value is reported as 78.8 pmol/g; the “Liver/Heart Ratio” value is 11^a; the “Mean Concentration … Heart” value is 7.5^a pmol/g. In data set [3] (AT-527 100 mg/kg oral), the “Mean Concentration … Liver” value turned out to be 203 pmol/g; the “Liver/Heart Ratio” value is reported as 26^a; the “Mean Concentration … Heart” value is 7.9^a pmol/g. Besides, in data set [3] (AT-527 300 mg/kg oral), the “Mean Concentration … Liver” value is on record as 1180 pmol/g; the “Liver/Heart Ratio” value stood at 72; the “Mean Concentration … Heart” value is recorded as 16.5 pmol/g.
